How the values were obtained:
pigweed = assay: Test B pre/postemergence pigweed; assay type: in vivo, Amaranthus retroflexus
Summary of the method: (§1)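 Herbicidal effect was estimated by eye on a ten-point control scale after plants spent twelve to sixteen days in a greenhouse following soil or foliar treatment. Foliar sprays targeted plants at one to four leaves; all doses were formulated in a non-phytotoxic solvent with surfactant.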

soybean = assay: Test B pre/postemergence soybean; assay type: in vivo, Glycine max
Summary of the method: as §1

rape = assay: Test B pre/postemergence rape; assay type: in vivo, Brassica napus
Summary of the method: as §1

surinam grass = assay: Test B pre/postemergence surinam grass; assay type: in vivo, Brachiaria decumbens; settings: Postemergence
Summary of the method: as §1

sugar beet = assay: Test B pre/postemergence sugar beet; assay type: in vivo, Beta vulgaris
Summary of the method: as §1

blackgrass = assay: Test B pre/postemergence blackgrass; assay type: in vivo, Alopecurus myosuroides
Summary of the method: as §1

bedstraw = assay: Test B pre/postemergence bedstraw; assay type: in vivo, Galium aparine
Summary of the method: as §1

giant foxtail = assay: Test B pre/postemergence giant foxtail; assay type: in vivo, Setaria faberii
Summary of the method: as §1

morningglory = assay: Test B pre/postemergence morningglory; assay type: in vivo, Ipomoea hederacea
Summary of the method: as §1

crabgrass = assay: Test B pre/postemergence crabgrass; assay type: in vivo, Digitaria sanguinalis
Summary of the method: as §1

purple nutsedge = assay: Test B pre/postemergence purple nutsedge; assay type: in vivo, Cyperus rotundus
Summary of the method: as §1

corn = assay: Test B pre/postemergence corn; assay type: in vivo, Zea mays
Summary of the method: as §1

velvetleaf = assay: Test B pre/postemergence velvetleaf; assay type: in vivo, Abutilon theophrasti
Summary of the method: as §1

wild oat = assay: Test B pre/postemergence wild oat; assay type: in vivo, Avena fatua
Summary of the method: as §1

cocklebur = assay: Test B pre/postemergence cocklebur; assay type: in vivo, Xanthium strumarium
Summary of the method: as §1

wheat = assay: Test B pre/postemergence wheat; assay type: in vivo, Triticum aestivum
Summary of the method: as §1

[1] = Postemergence, Rate 125 g/ha, scale of 0 to 10 where 0 is no effect and 10 is complete control
[2] = Postemergence, Rate 500 g/ha, scale 0 (no effect) to 10 (complete control)
[3] = Postemergence, Rate 1000 g/ha, scale 0 to 10 (0 no effect, 10 complete control)
[4] = Rate 125 g/ha, Preemergence, scale 0 to 10 (0 no effect, 10 complete control)
[5] = Rate 250 g/ha, Postemergence, scale 0 to 10, 0 is no effect, 10 is complete control
[6] = Rate 500 g/ha, Preemergence, scale 0 to 10 (0 no effect, 10 complete control)
[7] = Rate 1000 g/ha, Preemergence, scale 0 to 10 (0 no effect, 10 complete control)
[8] = Preemergence, Rate 250 g/ha, scale 0 (no effect) to 10 (complete control)

COP(=O)(CCn1c(=O)on(C(=O)N(c2ccc(F)cc2F)C(C)C)c1=O)OC [Compound 777]
8: Redroot pigweed plant response rating (pigweed; [3]) | B. signalgrass plant response rating (surinam grass; Rate 1000 g/ha, scale 0 to 10 (0 no effect, 10 complete control)) | Giant foxtail plant response rating (giant foxtail; [1]) | Giant foxtail plant response rating (giant foxtail; [5]) | Morningglory plant response rating (morningglory; [1]) | Morningglory plant response rating (morningglory; [2]) | Morningglory plant response rating (morningglory; [3]) | Morningglory plant response rating (morningglory; [5])
4: Redroot pigweed plant response rating (pigweed; [2]) | Redroot pigweed plant response rating (pigweed; [5]) | Blackgrass plant response rating (blackgrass; [2]) | Blackgrass plant response rating (blackgrass; [3]) | Crabgrass plant response rating (crabgrass; [1])
9: Plant response rating, Redroot pigweed (pigweed; [7]) | Giant foxtail plant response rating (giant foxtail; [2]) | Giant foxtail plant response rating (giant foxtail; [3]) | Crabgrass plant response rating (crabgrass; [2]) | Wild oats plant response rating (wild oat; [6]) | Plant response rating, Wild oats (wild oat; [7]) | Wheat plant response rating (wheat; [6]) | Plant response rating, Wheat (wheat; [7])
1: Morningglory plant response rating (morningglory; [4]) | Plant response rating, Nutsedge (purple nutsedge; [7])
10: Blackgrass plant response rating (blackgrass; [8]) | Blackgrass plant response rating (blackgrass; [6]) | Plant response rating, Blackgrass (blackgrass; [7]) | Giant foxtail plant response rating (giant foxtail; [8]) | Giant foxtail plant response rating (giant foxtail; [4]) | Giant foxtail plant response rating (giant foxtail; [6]) | Plant response rating, Giant foxtail (giant foxtail; [7]) | Crabgrass plant response rating (crabgrass; [8]) | Crabgrass plant response rating (crabgrass; [4]) | Crabgrass plant response rating (crabgrass; [6]) | Plant response rating, Crabgrass (crabgrass; [7])
0: Soybean plant response rating (soybean; [4]) | Soybean plant response rating (soybean; [6]) | Plant response rating, Soybean (soybean; [7]) | Rape plant response rating (rape; [1]) | Rape plant response rating (rape; [2]) | Rape plant response rating (rape; [3]) | Rape plant response rating (rape; [4]) | Rape plant response rating (rape; [5]) | Sugarbeets plant response rating (sugar beet; [4]) | Blackgrass plant response rating (blackgrass; [1]) | Bedstraw plant response rating (bedstraw; [1]) | Bedstraw plant response rating (bedstraw; [4]) | Bedstraw plant response rating (bedstraw; [6]) | Nutsedge plant response rating (purple nutsedge; [4]) | Nutsedge plant response rating (purple nutsedge; [5]) | Corn plant response rating (corn; [1]) | Corn plant response rating (corn; [2]) | Corn plant response rating (corn; [3]) | Corn plant response rating (corn; [8]) | Corn plant response rating (corn; [4]) | Corn plant response rating (corn; [5]) | Corn plant response rating (corn; [6]) | Plant response rating, Corn (corn; [7]) | Velvetleaf plant response rating (velvetleaf; [4]) | Velvetleaf plant response rating (velvetleaf; [6]) | Cocklebur plant response rating (cocklebur; [1]) | Cocklebur plant response rating (cocklebur; [2]) | Cocklebur plant response rating (cocklebur; [3]) | Cocklebur plant response rating (cocklebur; [8]) | Cocklebur plant response rating (cocklebur; [4]) | Cocklebur plant response rating (cocklebur; [5]) | Cocklebur plant response rating (cocklebur; [6]) | Wheat plant response rating (wheat; [4])
6: Soybean plant response rating (soybean; [2]) | Bedstraw plant response rating (bedstraw; [3])
3: Soybean plant response rating (soybean; [5]) | B. signalgrass plant response rating (surinam grass; Rate 500 g/ha, scale 0 to 10, 0 is no effect, 10 is complete control) | Sugarbeets plant response rating (sugar beet; [5]) | Sugarbeets plant response rating (sugar beet; [6]) | Plant response rating, Sugarbeets (sugar beet; [7]) | Bedstraw plant response rating (bedstraw; [2]) | Plant response rating, Bedstraw (bedstraw; [7]) | Nutsedge plant response rating (purple nutsedge; [2]) | Nutsedge plant response rating (purple nutsedge; [3]) | Velvetleaf plant response rating (velvetleaf; [5]) | Plant response rating, Velvetleaf (velvetleaf; [7]) | Wild oats plant response rating (wild oat; [2]) | Wild oats plant response rating (wild oat; [4]) | Wheat plant response rating (wheat; [2])
7: Plant response rating, Rape (rape; [7]) | Plant response rating, Morningglory (morningglory; [7]) | Crabgrass plant response rating (crabgrass; [5])
2: Redroot pigweed plant response rating (pigweed; [1]) | Redroot pigweed plant response rating (pigweed; [4]) | Redroot pigweed plant response rating (pigweed; [6]) | Rape plant response rating (rape; [6]) | B. signalgrass plant response rating (surinam grass; Rate 125 g/ha, scale of 0 to 10 where 0 is no effect and 10 is complete control) | B. signalgrass plant response rating (surinam grass; Rate 250 g/ha, scale 0 to 10, 0 is no effect, 10 is complete control) | Blackgrass plant response rating (blackgrass; [4]) | Blackgrass plant response rating (blackgrass; [5]) | Bedstraw plant response rating (bedstraw; [5]) | Wild oats plant response rating (wild oat; [5]) | Wheat plant response rating (wheat; [5])
5: Sugarbeets plant response rating (sugar beet; [2]) | Morningglory plant response rating (morningglory; [6]) | Velvetleaf plant response rating (velvetleaf; [2])

From patent US6737383B1, “Herbicidal oxadiazolidines” (priority 1999, dated 2004)
